Patent US9096494B2, “Arachidonic acid analogs and methods for analgesic treatment using same” (priority 2009, dated 2015)
“And” between values parts separate entries of the source, which are not always exact repeats. Identical values can stand only once.

Key:
mice [1] = assay: Tail-flick assay in mouse; assay type: in vivo; conditions: 10 mg/kg intravenous bolus
Protocol: The tail-flick assay is based on the time measured to reflex withdrawal of the tail in response to a radiant heat source. The maximum exposure time to the radiant heat source is set at 10 seconds. Prior to treatment, a baseline (BL) time measured to tail-flick withdrawal is determined after two exposures to the radiant source separated by a 30 min period. Control mice are intravenously treated with vehicle and test mice are intravenously treated with analgesic test compound. Data of tail-flick withdrawal of treated mice (TM) are calculated as maximum possible effect (MPE), where MPE=(TM−BL)/(10−BL). Tail-flick withdrawal is measured at 5 min, 15 min, 30 mm, and 1 hr. A total of 3-5 mice are used for each time point tested.

GABA/GABAB(1b) = target: T1, GABA/GABAB(1b) (Homo sapiens, UniProt Q9UBS5); assay: Cerep BioPrint dependence and addiction panel; assay type: binding
T1 construct: Cerep (contract screen)

[2] = target: T2, Serotonin/5HT transporter (Homo sapiens, UniProt P31645); assay: Cerep BioPrint dependence and addiction panel; assay type: binding
T2 construct: Cerep (contract screening panel)

Serotonin/5-HT3 = Serotonin/5-HT3 (Homo sapiens, UniProt P46098); assay: Cerep BioPrint dependence and addiction panel; assay type: binding
[3] = target: PPRA-Peroxisome proliferator-activated (Homo sapiens, UniProt P37231); assay: Cerep BioPrint receptor binding
Serotonin/5-Ht2A = target: T3, Serotonin/5-Ht2A (Homo sapiens, UniProt P28223); assay: Cerep BioPrint dependence and addiction panel; assay type: binding
T3 construct: Cerep (contract screen)

Melanocortin/MC4 = target: T4, Melanocortin/MC4 (Homo sapiens, UniProt P32245); assay: Cerep BioPrint dependence and addiction panel; assay type: binding
T4 construct: Cerep (contract screen)

in vivo = conditions: mouse, iv, 10 mg/kg
[4] = test system: Dopamine transporter/5HT transporter; assay: Cerep BioPrint dependence and addiction panel; assay type: binding
Opioid/NOP(ORL1) = target: T5, Opioid/NOP(ORL1) (Homo sapiens, UniProt P41146); assay: Cerep BioPrint dependence and addiction panel; assay type: binding
T5 construct: Cerep (contract screening panel)

[5] = target: CL-Channel (GABA gated) antagonist; assay: Cerep BioPrint receptor binding
Glutamate/PCP = assay: Cerep BioPrint dependence and addiction panel; assay type: binding
κ-opioid agonist = target: T6, κ-opioid agonist (Rattus norvegicus, UniProt P34975); assay: Cerep BioPrint receptor binding
T6 construct: Cerep (contract screen)
Protocol: (§1) For the initial BioPrint screen, a free compound concentration of 10 μM was used, which corresponds to a 2.5 mg/kg bolus dose in a mouse. […] Thus, a 2.5 mg/kg bolus dose would be equivalent to a […] free compound concentration.

CB1 Cannabinoid agonist = target: T7, CB1 Cannabinoid agonist (Homo sapiens, UniProt P21554); assay: Cerep BioPrint receptor binding
T7 construct: Cerep (contract screen)
Protocol: as §1

CB2 Cannabinoid agonist = target: T8, CB2 Cannabinoid agonist (Homo sapiens, UniProt P34972); assay: Cerep BioPrint receptor binding
T8 construct: Cerep (contract screen)
Protocol: as §1

δ- opioid agonist = target: T9, δ- opioid agonist (Homo sapiens, UniProt P41143); assay: Cerep BioPrint receptor binding
T9 construct: Cerep (contract screen)
Protocol: as §1

TRPV1(VR1) agonist = target: T10, TRPV1(VR1) agonist (Rattus norvegicus, UniProt O35433); assay: Cerep BioPrint receptor binding
T10 construct: Cerep (contract screen)

plasma or serum proteins = assay: Binding to plasma or serum proteins; assay type: in vitro ADME
Protocol: as §1

mice [6] = assay: Writhing assay in mouse (bolus and continuous infusion); assay type: in vivo
[7] = test system: TRPV1 vanilloid knockout mice; assay: Analgesic effect in TRPV1 vanilloid knockout mice; assay type: in vivo; conditions: TRPV1 vanilloid knockout mice (homozygotes)
[8] = test system: Sigma/Sigma non selective; assay: Cerep BioPrint dependence and addiction panel; assay type: binding
ATPase/ATPase(Na+/K+) = assay: Cerep BioPrint dependence and addiction panel (enzyme); assay type: biochemical
[9] = target: T11, MT1(ML1A) agonist-Melatonin (Homo sapiens, UniProt P48039); assay: Cerep BioPrint receptor binding
T11 construct: Cerep (contract screen)

Glutamate/AMPA = assay: Cerep BioPrint dependence and addiction panel; assay type: binding
[10] = test system: CB1 cannabinoid knockout mice; assay: Analgesic effect in CB1 cannabinoid knockout mice; assay type: in vivo; conditions: CB1 cannabinoid knockout mice (homozygotes)
[11] = LD50 established using mice; assay type: in vivo; conditions: in vivo, body surface area translation mouse to human
Protocol: (§2) LD50 (abbreviation for “Lethal Dose, 50%”) is established using mice. The dose translation between mouse and human is based on body surface area allometric translation. For example, a 1 mg/kg mouse dose is equivalent to a 0.08 mg/kg human dose. For more information on species dose translation see: Reagan-Shaw et. al, FASEB J. 122, 659-661 (2007).

mice [12] = assay: LD50 established using mice; assay type: in vivo
Protocol: as §2

[13] = target: T12, Dopamine/dopamine transporter (Homo sapiens, UniProt Q01959); assay: Cerep BioPrint dependence and addiction panel; assay type: binding
T12 construct: Cerep (contract screening panel)

dopamine levels = assay: Effect on dopamine levels; conditions: compared with Δ9-THC
[14] = CMX-020 Injectable Emulsion, from mouse writhing assay
[15] = continuous infusion, from mouse writhing assay

T6 sequence (P34975 whole entry): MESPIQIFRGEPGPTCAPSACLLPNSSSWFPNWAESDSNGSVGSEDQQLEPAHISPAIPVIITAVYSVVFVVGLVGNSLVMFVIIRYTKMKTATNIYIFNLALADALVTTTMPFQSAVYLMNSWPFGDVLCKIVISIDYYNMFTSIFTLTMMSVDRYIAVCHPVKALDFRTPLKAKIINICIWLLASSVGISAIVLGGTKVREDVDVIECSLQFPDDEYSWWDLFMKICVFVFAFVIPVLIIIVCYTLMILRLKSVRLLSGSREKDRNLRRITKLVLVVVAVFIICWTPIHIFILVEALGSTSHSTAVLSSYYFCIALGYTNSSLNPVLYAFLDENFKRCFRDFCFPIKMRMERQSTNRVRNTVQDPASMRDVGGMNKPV
T10 sequence (O35433 whole entry): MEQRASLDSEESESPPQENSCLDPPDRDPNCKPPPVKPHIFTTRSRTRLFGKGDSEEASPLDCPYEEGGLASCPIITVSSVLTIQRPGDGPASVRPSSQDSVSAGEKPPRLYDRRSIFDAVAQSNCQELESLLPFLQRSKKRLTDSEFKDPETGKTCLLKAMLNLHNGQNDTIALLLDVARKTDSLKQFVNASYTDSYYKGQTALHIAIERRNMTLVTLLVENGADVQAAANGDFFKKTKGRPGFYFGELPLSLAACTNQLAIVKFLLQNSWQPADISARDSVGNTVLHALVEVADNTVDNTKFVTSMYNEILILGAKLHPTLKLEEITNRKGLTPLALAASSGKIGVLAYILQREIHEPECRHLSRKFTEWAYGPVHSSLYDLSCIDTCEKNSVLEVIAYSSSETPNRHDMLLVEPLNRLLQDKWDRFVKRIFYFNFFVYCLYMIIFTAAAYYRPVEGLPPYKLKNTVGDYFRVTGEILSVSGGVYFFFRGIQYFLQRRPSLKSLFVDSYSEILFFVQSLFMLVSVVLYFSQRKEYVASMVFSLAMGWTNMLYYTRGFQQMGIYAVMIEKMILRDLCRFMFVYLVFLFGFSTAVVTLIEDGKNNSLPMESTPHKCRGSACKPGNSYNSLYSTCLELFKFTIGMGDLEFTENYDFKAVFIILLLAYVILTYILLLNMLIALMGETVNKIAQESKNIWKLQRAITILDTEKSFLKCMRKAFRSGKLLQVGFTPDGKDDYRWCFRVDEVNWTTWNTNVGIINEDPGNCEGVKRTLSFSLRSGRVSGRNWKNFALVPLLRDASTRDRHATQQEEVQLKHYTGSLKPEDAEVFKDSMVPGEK
T9 sequence (P41143 whole entry): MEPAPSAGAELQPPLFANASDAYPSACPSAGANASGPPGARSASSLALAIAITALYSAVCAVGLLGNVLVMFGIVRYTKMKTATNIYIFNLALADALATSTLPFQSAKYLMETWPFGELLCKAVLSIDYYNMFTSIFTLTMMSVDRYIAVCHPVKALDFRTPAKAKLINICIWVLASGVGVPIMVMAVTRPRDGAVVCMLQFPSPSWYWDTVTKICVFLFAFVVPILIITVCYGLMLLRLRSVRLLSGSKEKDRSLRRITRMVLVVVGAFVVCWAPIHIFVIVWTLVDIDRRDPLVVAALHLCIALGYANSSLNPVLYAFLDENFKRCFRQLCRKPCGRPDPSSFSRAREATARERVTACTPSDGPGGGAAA
T7 sequence (P21554 whole entry): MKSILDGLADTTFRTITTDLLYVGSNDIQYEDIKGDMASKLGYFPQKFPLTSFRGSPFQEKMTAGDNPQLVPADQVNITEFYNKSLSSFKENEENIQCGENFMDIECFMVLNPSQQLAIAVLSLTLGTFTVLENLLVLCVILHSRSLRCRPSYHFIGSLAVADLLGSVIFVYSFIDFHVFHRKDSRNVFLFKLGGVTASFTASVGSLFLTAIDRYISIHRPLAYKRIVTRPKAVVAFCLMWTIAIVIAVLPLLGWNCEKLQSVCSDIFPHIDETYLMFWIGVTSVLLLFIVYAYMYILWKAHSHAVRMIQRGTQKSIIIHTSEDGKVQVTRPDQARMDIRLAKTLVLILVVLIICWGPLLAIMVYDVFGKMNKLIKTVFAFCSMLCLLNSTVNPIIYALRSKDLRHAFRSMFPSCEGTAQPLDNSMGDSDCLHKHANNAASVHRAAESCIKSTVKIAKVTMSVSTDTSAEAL
T8 sequence (P34972 whole entry): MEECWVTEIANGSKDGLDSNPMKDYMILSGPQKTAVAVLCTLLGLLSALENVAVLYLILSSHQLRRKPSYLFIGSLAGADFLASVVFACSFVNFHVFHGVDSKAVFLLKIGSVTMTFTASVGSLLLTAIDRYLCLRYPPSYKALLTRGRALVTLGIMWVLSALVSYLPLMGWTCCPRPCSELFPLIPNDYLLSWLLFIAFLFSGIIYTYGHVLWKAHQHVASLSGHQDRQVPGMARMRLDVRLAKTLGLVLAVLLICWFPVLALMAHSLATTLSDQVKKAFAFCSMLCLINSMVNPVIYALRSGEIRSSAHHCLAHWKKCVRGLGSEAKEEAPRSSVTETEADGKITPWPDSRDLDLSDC
T11 sequence (P48039 whole entry): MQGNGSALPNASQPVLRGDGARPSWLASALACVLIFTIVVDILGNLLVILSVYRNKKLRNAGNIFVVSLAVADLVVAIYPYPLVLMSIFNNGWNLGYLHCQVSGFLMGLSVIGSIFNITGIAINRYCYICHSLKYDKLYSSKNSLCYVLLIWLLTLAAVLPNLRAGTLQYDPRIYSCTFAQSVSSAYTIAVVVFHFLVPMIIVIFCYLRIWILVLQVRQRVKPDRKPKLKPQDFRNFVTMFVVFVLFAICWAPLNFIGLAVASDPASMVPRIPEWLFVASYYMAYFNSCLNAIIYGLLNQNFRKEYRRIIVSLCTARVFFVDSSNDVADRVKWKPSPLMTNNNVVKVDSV
T2 sequence (P31645 whole entry): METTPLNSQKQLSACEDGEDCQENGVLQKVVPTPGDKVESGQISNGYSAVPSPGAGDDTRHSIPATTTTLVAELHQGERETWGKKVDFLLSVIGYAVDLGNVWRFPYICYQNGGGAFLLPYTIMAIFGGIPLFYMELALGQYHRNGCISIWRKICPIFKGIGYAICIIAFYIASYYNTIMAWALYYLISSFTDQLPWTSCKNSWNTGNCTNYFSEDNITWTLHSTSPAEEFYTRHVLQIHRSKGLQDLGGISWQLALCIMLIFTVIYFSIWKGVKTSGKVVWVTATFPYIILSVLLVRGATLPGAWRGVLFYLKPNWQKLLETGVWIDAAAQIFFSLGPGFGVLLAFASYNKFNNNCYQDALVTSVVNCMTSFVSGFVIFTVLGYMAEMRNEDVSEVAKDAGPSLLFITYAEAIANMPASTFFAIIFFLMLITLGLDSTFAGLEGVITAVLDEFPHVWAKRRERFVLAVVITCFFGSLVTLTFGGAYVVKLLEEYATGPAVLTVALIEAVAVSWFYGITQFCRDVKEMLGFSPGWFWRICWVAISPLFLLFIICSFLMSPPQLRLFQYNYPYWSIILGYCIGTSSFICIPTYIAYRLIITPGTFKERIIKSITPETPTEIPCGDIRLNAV
T4 sequence (P32245 whole entry): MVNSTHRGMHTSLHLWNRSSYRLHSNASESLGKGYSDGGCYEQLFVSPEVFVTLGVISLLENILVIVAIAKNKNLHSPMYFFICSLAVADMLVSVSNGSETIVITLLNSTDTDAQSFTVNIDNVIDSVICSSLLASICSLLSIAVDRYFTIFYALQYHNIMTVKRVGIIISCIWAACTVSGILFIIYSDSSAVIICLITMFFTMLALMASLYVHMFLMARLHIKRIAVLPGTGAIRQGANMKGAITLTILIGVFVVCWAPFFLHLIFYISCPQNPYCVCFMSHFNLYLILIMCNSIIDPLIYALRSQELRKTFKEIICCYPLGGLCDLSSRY
T3 sequence (P28223 whole entry): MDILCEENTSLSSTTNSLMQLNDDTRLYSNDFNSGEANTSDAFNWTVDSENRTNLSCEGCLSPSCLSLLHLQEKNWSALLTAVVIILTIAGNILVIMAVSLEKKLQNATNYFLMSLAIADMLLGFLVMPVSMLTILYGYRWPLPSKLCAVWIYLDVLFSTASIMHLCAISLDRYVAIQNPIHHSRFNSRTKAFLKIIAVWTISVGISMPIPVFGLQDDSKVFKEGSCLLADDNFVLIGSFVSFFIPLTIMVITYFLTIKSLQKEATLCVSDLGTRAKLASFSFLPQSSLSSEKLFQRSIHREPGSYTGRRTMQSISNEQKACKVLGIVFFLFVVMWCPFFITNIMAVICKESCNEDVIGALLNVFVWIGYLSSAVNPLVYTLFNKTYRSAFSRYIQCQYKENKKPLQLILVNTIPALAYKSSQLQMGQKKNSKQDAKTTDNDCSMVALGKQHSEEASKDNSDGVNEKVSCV
Sequence of Serotonin/5-HT3 (P46098 24-478): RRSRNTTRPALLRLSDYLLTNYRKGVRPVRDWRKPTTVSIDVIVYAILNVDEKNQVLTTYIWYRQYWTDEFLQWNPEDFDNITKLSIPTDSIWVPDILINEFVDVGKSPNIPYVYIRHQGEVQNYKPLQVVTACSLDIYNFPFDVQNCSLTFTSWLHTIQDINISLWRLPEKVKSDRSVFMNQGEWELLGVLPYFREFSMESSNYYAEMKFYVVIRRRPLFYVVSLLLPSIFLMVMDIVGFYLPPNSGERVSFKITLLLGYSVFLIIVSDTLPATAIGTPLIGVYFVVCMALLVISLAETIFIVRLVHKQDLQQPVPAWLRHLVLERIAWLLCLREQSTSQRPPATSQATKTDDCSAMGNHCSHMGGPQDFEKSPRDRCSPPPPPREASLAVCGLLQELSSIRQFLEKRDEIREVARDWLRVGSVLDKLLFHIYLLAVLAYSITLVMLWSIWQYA

SMILES: CCCCCC(=O)N(CC/C=C\C/C=C\C/C=C\CCCC(=O)NC1CC1)C(C)C [CMX-020]
- time to maximal (full) analgesic response, tail-flick (mice [1]): 5 min
- inhibition at 10 µM (GABA/GABAB(1b)): -6%
- inhibition at 10 µM [2]: 10%
- % Inhibition @10 uM (Serotonin/5-HT3): −1%
- inhibition at 10 µM [3]: 58%
- inhibition at 10 µM (Serotonin/5-Ht2A): 29%
- inhibition at 10 µM (Melanocortin/MC4): 0%
- concentration at 15 min (in vivo; brain): 704 ng/g
- concentration at 60 min (in vivo; brain): < 20 ng/g
- concentration at 15 min (in vivo; liver): 170 ng/g
- concentration at 60 min (in vivo; liver): < 20 ng/g
- C0 (in vivo; plasma): ~14000 ng/mL and ~33 µM
- half-life (in vivo; plasma): ~17 min
- solubility in water (Solubility in water): very slightly soluble
- % Inhibition @10 uM [4]: 15%
- inhibition at 10 µM (Opioid/NOP(ORL1)): 5%
- IC50 [5]: 5.1 µM
- % Inhibition @10 uM (Glutamate/PCP): −6%
- IC50 (κ-opioid agonist): 4.7 µM
- inhibition at 10 µM (κ-opioid agonist; κ-opioid agonist, 10 uM): 61%
- IC50 (CB1 Cannabinoid agonist): 21 nM
- inhibition at 10 µM (CB1 Cannabinoid agonist; CB1 Cannabinoid agonist, 10 uM): 98%
- IC50 (CB2 Cannabinoid agonist): 150 nM
- inhibition at 10 µM (CB2 Cannabinoid agonist; CB2 Cannabinoid agonist, 10 uM): 98%
- IC50 (δ- opioid agonist): 13 µM
- inhibition at 10 µM (δ- opioid agonist; δ- opioid agonist, 10 uM): 52%
- IC50 (TRPV1(VR1) agonist): 7.5 µM
- % Inhibition @10 uM (TRPV1(VR1) agonist; TRPV1(VR1) agonist, 10 uM): 59%
- fraction unbound (plasma or serum proteins): ~0.01
- continuous infusion dose producing roughly the same level of analgesia (roughly 50% MPE), writhing assay (mice [6]; 24 hour infusion by Alzet pump, measured at 3 hours and 20 hours, preliminary): 2 mg/kg/h
- analgesic response compared with Perfalgan 12.5 mg/kg, writhing assay (mice [6]; CMX-020 0.05 mg/kg): higher analgesic response than Perfalgan
- Analgesic Equivalent to Acetaminophen 2x, Bolus dose (mice [6]; [14]): 0.02 mg/kg
- Analgesic Equivalent to Acetaminophen 3x, Bolus dose (mice [6]; [14]): 0.04 mg/kg
- time over which analgesic levels are sustained by continuous infusion (mice [6]; continuous infusion in mice): 24 h
- Analgesic Equivalent to Acetaminophen 1x, Maintenance dose (mice [6]; [15]): 0.08 mg/kg/h
- Analgesic Equivalent to Acetaminophen 2x, Maintenance dose (mice [6]; [15]): 0.16 mg/kg/h
- Analgesic Equivalent to Acetaminophen 3x, Maintenance dose (mice [6]; [15]): 0.32 mg/kg/h
- Analgesic Equivalent to Acetaminophen 1x, Bolus dose (mice [6]; for a 70 kg human): 0.6 mg
- Analgesic Equivalent to Acetaminophen 1x, Maintenance dose (mice [6]; for a 70 kg human): 6 mg/h
- Analgesic Equivalent to Acetaminophen 2x, Bolus dose (mice [6]; for a 70 kg human): 1.4 mg
- Analgesic Equivalent to Acetaminophen 2x, Maintenance dose (mice [6]; for a 70 kg human): 11 mg/h
- Analgesic Equivalent to Acetaminophen 3x, Bolus dose (mice [6]; for a 70 kg human): 2.8 mg
- Analgesic Equivalent to Acetaminophen 3x, Maintenance dose (mice [6]; for a 70 kg human): 23 mg/h
- dose achieving 100% MPE, writhing assay (mice [6]; intravenous bolus): approximately 0.5 mg/kg
- dose dependence of the level of analgesia (mice [6]; mouse writhing assay): dose dependent
- Analgesic Equivalent to Acetaminophen 1x, Bolus dose (mice [6]; mouse, in vivo, iv): 0.01 mg/kg
- analgesic effect in knockout mice [7]: altered
- % Inhibition @10 uM [8]: 31%
- % Inhibition @10 uM (ATPase/ATPase(Na+/K+)): 12%
- IC50 [9]: 1200 nM
- inhibition at 10 µM ([9]; MT1(ML1A) agonist-Melatonin, 10 uM): 88%
- % Inhibition @10 uM (Glutamate/AMPA): 9%
- analgesic effect in knockout mice [10]: almost completely blocked
- LD50 [11]: 2.4 mg/kg
- LD50 CMX-020 Doses, Maintenance (mice [12]; body surface area translation mouse to human): 6.4 mg/kg/h
- LD50 CMX-020 Doses, Bolus (mice [12]; for a 70 kg human): 170 mg
- LD50 CMX-020 Doses, Maintenance (mice [12]; for a 70 kg human): 450 mg/h
- inhibition at 10 µM [13]: 15%
- effect on dopamine levels (dopamine levels): does not elevate dopamine levels
